US7855165B2, “Herbicide composition for paddy field” (Bayer Cropscience AG, priority 2007, dated 2010)
Where two headings read alike, the source gives them in different places.

Columns and labels:
[1] = test system: paddy rice; test: Test Example 2: test of effect of phytotoxicity reduction; assay type: in vivo; details: 2 weeks after treatment
From the text: (§1) • Component (a) (a-1): compound No. 1 (ref: the aforementioned Table A) • (a-2): compound No. 3 (same as above) • (a-3): compound No. 11 (same as above) • Component (b) the aforementioned (b-1)-(b-15) • Component (c) the aforementioned (c-1)-(c-3) <Preparation of Test Agents> • Carrier: Acetone 5 parts by weight • Surfactant: Benzyloxy polyglycol ether 1 part by weight The above-mentioned carrier and surfactant and 1 part by weight of active compounds (component (a) and component (b) or component (c)) are mixed and the obtained formulations are diluted with water to prepare the test agents of the prescribed chemicals amount (preparations).
In a green house, paddy rice of 2-2.5 leafstage was transplanted to paddy field soil filled in a 1000 cm^2 pot to 2 cm depth and brought to a submerged condition of about 2-3 cm. Five days after the transplantation, prescribed diluted solution of preparation of each active compound and each herbicide in the following table was applied on water surface each singly or simultaneously. After the treatment, the submerged condition of 3 cm was maintained and the grade of phytotoxicity to paddy rice was studied 2 weeks after the treatment. The phytotoxicity was evaluated as 100% in case of complete death and 0% in case of no phytotoxicity.

[2] = test system: annual broad-leaves (Lindernia procumbens Philcox, Rotala indica Koehne, Elatine triandra Schk, Ammannia multiflora Roxb., etc.); test: Test Example 1: effect of the herbicide composition against paddy field weeds (pot test, green house); assay type: in vivo; details: 3 weeks after treatment
From the text: (§2) In a green house, seeds or tubers of Monochoria vaginalis Presl, annual broad-leaves (Lindernia procumbens Philcox, Rotala indica Koehne, Elatine triandra Schk, Ammannia multiflora Roxb., etc.), Cyperus serotinus Rottboel, and Sagittaria pygmaea Miq were inoculated to paddy field soil filled in a 500 cm^2 pot and brought to a submerged condition of about 2-3 cm. […] After the treatment, the submerged condition of 3 cm was maintained and the herbicidal effect was studied 3 weeks after the treatment. The herbicidal effect was evaluated as 100% in case of complete death and 0% in case of no effect.
(§3) In the tables, MOOVP represents Monochoria vaginalis Presl, BBBBB represents annual broad-leaves, CYPSE represents Cyperus serotinus Rottboel and SAGPY represents Sagittaria pygmaea Miq.

[3] = test system: Cyperus serotinus Rottboel; test: as above; assay type: in vivo
From the text: as §1
(§4) In a green house, seeds or tubers of Monochoria vaginalis Presl, annual broad-leaves (Lindernia procumbens Philcox, Rotala indica Koehne, Elatine triandra Schk, Ammannia multiflora Roxb., etc.), Cyperus serotinus Rottboel, and Sagittaria pygmaea Miq were inoculated to paddy field soil filled in a 500 cm^2 pot and brought to a submerged condition of about 2-3 cm. At 1.5-2 leafstage of each weed prescribed diluted solution of preparation of each active compound and each herbicide in the following table was applied on water surface each singly or simultaneously. After the treatment, the submerged condition of 3 cm was maintained and the herbicidal effect was studied 3 weeks after the treatment. The herbicidal effect was evaluated as 100% in case of complete death and 0% in case of no effect.
as §3

[4] = test system: Monochoria vaginalis Presl; test: as above; assay type: in vivo
From the text: as §1, §4, §3

[5] = test system: Sagittaria pygmaea Miq; test: as above; assay type: in vivo
From the text: as §1, §4, §3

[6] = as above; assay type: in vivo, annual broad-leaves; details: 504 h, read-out: Herbicidal effect (%) BBBBB
From the text: as §2, §3

[7] = 50 g/ha single, 3 weeks after treatment
[8] = 100 g/ha single, 3 weeks after treatment
[9] = Cyperus serotinus, 504 h, read-out: Herbicidal effect (%) CYPSE
[10] = Pontederia vaginalis, 504 h, read-out: Herbicidal effect (%) MOOVP
[11] = Sagittaria pygmaea, 504 h, read-out: Herbicidal effect (%) SAGPY

SMILES: CCOC(=O)C1=NN(c2ccc(Cl)cc2Cl)C(C)(C(=O)OCC)C1 (stereo not shown) [(c-2), mefenpyr-diethyl]
- Phytotoxicity % ([1]; 500 g/ha single): 0%

SMILES: O=C(O)C1=NOC(c2ccccc2)(c2ccccc2)C1 [(c-3), isoxadifen]
- Phytotoxicity % ([1]; 500 g/ha single): 0%

SMILES: Cc1ccc(NC(=O)NC(C)(C)c2ccccc2)cc1 [(c-1), dymron]
- Phytotoxicity % ([1]; 450 g/ha single): 0%

SMILES: C#CCN(C)c1c(C#N)cnn1-c1nn2c(c1Cl)CCCC2 [(b-6), pyraclonil]
- Herbicidal effect (%) BBBBB ([2]; 50 g/ha single): 90%
- Herbicidal effect (%) BBBBB ([2]; 100 g/ha single): 90%
- Herbicidal effect (%) CYPSE [3, 7]: 20%
- Herbicidal effect (%) CYPSE [3, 8]: 30%
- Herbicidal effect (%) MOOVP [4, 7]: 80%
- Herbicidal effect (%) MOOVP [4, 8]: 90%
- Herbicidal effect (%) SAGPY [5, 7]: 50%
- Herbicidal effect (%) SAGPY [5, 8]: 85%

SMILES: COC(=O)c1ccccc1CS(=O)(=O)NC(=O)Nc1nc(OC)cc(OC)n1 [(b-12), bensulfuron-methyl]
- pest or weed control at 2.5 g/ha ([6]; 2.5 g/ha single, 3 weeks after treatment): 50%
- pest or weed control at 5 g/ha ([6]; 5 g/ha single, 3 weeks after treatment): 60%
- pest or weed control at 2.5 g/ha ([3]; Cyperus serotinus, 504 h, 2.5 g/ha single, 3 weeks after treatment, read-out: Herbicidal effect (%) CYPSE): 40%
- pest or weed control at 5 g/ha ([3]; Cyperus serotinus, 504 h, 5 g/ha single, 3 weeks after treatment, read-out: Herbicidal effect (%) CYPSE): 40%
- pest or weed control at 2.5 g/ha ([4]; Pontederia vaginalis, 504 h, 2.5 g/ha single, 3 weeks after treatment, read-out: Herbicidal effect (%) MOOVP): 30%
- pest or weed control at 5 g/ha ([4]; Pontederia vaginalis, 504 h, 5 g/ha single, 3 weeks after treatment, read-out: Herbicidal effect (%) MOOVP): 60%
- pest or weed control at 2.5 g/ha ([5]; Sagittaria pygmaea, 504 h, 2.5 g/ha single, 3 weeks after treatment, read-out: Herbicidal effect (%) SAGPY): 50%
- pest or weed control at 5 g/ha ([5]; Sagittaria pygmaea, 504 h, 5 g/ha single, 3 weeks after treatment, read-out: Herbicidal effect (%) SAGPY): 50%

SMILES: CCN(C(=O)n1nnn(-c2ccccc2Cl)c1=O)C1CCCCC1 [(b-8), fentrazamide]
- pest or weed control at 75 g/ha ([6]; 75 g/ha single, 3 weeks after treatment): 40%
- pest or weed control at 150 g/ha ([6]; 150 g/ha single, 3 weeks after treatment): 70%
- pest or weed control at 75 g/ha ([3]; Cyperus serotinus, 504 h, 75 g/ha single, 3 weeks after treatment, read-out: Herbicidal effect (%) CYPSE): 30%
- pest or weed control at 150 g/ha ([3]; Cyperus serotinus, 504 h, 150 g/ha single, 3 weeks after treatment, read-out: Herbicidal effect (%) CYPSE): 30%
- pest or weed control at 75 g/ha ([4]; Pontederia vaginalis, 504 h, 75 g/ha single, 3 weeks after treatment, read-out: Herbicidal effect (%) MOOVP): 40%
- pest or weed control at 150 g/ha ([4]; Pontederia vaginalis, 504 h, 150 g/ha single, 3 weeks after treatment, read-out: Herbicidal effect (%) MOOVP): 60%
- pest or weed control at 75 g/ha ([5]; Sagittaria pygmaea, 504 h, 75 g/ha single, 3 weeks after treatment, read-out: Herbicidal effect (%) SAGPY): 30%
- pest or weed control at 150 g/ha ([5]; Sagittaria pygmaea, 504 h, 150 g/ha single, 3 weeks after treatment, read-out: Herbicidal effect (%) SAGPY): 30%

SMILES: CC1=C(c2ccccc2)C(=O)N(C(C)(C)c2cc(Cl)cc(Cl)c2)CO1 [(b-10), oxaziclomefone]
- pest or weed control at 20 g/ha [6]: 40%
- pest or weed control at 40 g/ha [6]: 40%
- pest or weed control at 20 g/ha ([3]; Cyperus serotinus, 504 h, 20 g/ha single, 3 weeks after treatment, read-out: Herbicidal effect (%) CYPSE): 0%
- pest or weed control at 40 g/ha ([3]; Cyperus serotinus, 504 h, 40 g/ha single, 3 weeks after treatment, read-out: Herbicidal effect (%) CYPSE): 0%
- pest or weed control at 20 g/ha ([4]; Pontederia vaginalis, 504 h, 20 g/ha single, 3 weeks after treatment, read-out: Herbicidal effect (%) MOOVP): 10%
- pest or weed control at 40 g/ha ([4]; Pontederia vaginalis, 504 h, 40 g/ha single, 3 weeks after treatment, read-out: Herbicidal effect (%) MOOVP): 20%
- pest or weed control at 20 g/ha ([5]; Sagittaria pygmaea, 504 h, 20 g/ha single, 3 weeks after treatment, read-out: Herbicidal effect (%) SAGPY): 0%
- pest or weed control at 40 g/ha ([5]; Sagittaria pygmaea, 504 h, 40 g/ha single, 3 weeks after treatment, read-out: Herbicidal effect (%) SAGPY): 10%

SMILES: CCN(CC)C(=O)n1cnc(S(=O)(=O)c2c(C)cc(C)cc2C)n1 [(b-3), cafenstrole]
- pest or weed control at 75 g/ha [6]: 40%
- pest or weed control at 150 g/ha [6]: 50%
- pest or weed control at 75 g/ha [3, 9]: 0%
- pest or weed control at 150 g/ha [3, 9]: 70%
- pest or weed control at 75 g/ha [4, 10]: 50%
- pest or weed control at 150 g/ha [4, 10]: 60%
- pest or weed control at 75 g/ha [5, 11]: 10%
- pest or weed control at 150 g/ha [5, 11]: 10%
